Measured values reported in the supplement of paper PMC11061612.

System: U-698-M
Conditions: B-Cell Non-Hodgkin's Lymphoma
Outline: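 In 1536-well plates, cancer cell lines in 7.5 μl DMEM/F12 or RPMI with 10% FBS spent 24 hours at 37°C and 5% CO2 and were then dosed for 72 hours with final DMSO typically 0.2%. Viability was read by CellTiter-Glo 2.0 luminescence and scaled between blank-well and DMSO-well means. The single-agent IC50 was fitted from dose responses using a logistic curve in a non-linear mixed effects model, and that logistic curve had two parameters.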

Structure (SMILES): COc1cc([C@@H]2c3cc4c(cc3[C@@H](O[C@@H]3O[C@@H]5CO[C@@H](C)O[C@H]5[C@H](O)[C@H]3O)[C@H]3COC(=O)[C@H]23)OCO4)cc(OC)c1O [Etoposide]
- IC50, cell viability 72 h (max 10 µM): 4930 nM

Structure (SMILES): COc1cc2ncnc(Nc3ccc(F)c(Cl)c3)c2cc1OCCCN1CCOCC1 [Gefitinib]
- IC50, cell viability 72 h (max 10 µM): > 10000 nM

Structure (SMILES): Nc1ccn([C@@H]2O[C@H](CO)[C@@H](O)C2(F)F)c(=O)n1 [Gemcitabine]
- IC50, cell viability 72 h (max 0.3 µM): 130 nM

Structure (SMILES): CS(=O)(=O)CCNCc1ccc(-c2ccc3ncnc(Nc4ccc(OCc5cccc(F)c5)c(Cl)c4)c3c2)o1 [Lapatinib]
- IC50, cell viability 72 h (max 10 µM): > 10000 nM

Structure (SMILES): NC1(c2ccc(-c3nc4ccn5c(=O)[nH]nc5c4cc3-c3ccccc3)cc2)CCC1 [MK-2206]
- IC50, cell viability 72 h (max 10 µM): > 10000 nM

Structure (SMILES): O=C(c1cc(Cc2n[nH]c(=O)c3ccccc23)ccc1F)N1CCN(C(=O)C2CC2)CC1 [Olaparib]
- IC50, cell viability 72 h (max 10 µM): > 10000 nM

Structure (SMILES): CC(=O)O[C@H]1C(=O)[C@@]2(C)[C@H]([C@H](OC(=O)c3ccccc3)[C@]3(O)C[C@H](OC(=O)[C@H](O)[C@@H](NC(=O)c4ccccc4)c4ccccc4)C(C)=C1C3(C)C)[C@]1(OC(C)=O)CO[C@@H]1C[C@@H]2O [Paclitaxel]
- IC50, cell viability 72 h (max 3 µM): 5.9 nM

Structure (SMILES): CC(=O)c1c(C)c2cnc(Nc3ccc(N4CCNCC4)cn3)nc2n(C2CCCC2)c1=O [Palbociclib]
- IC50, cell viability 72 h (max 10 µM): > 10000 nM

Structure (SMILES): COc1cccc(OCCCN)c1-c1cc(Nc2cnc(C#N)cn2)n[nH]1 [Prexasertib]
- IC50, cell viability 72 h (max 1 µM): 11.1 nM

Structure (SMILES): COc1cc2c(cc1OCCCCCOc1cc3c(cc1OC)C(=O)N1C=C(C)C[C@H]1C=N3)N=C[C@@H]1CC(C)=CN1C2=O [SG3199]
- IC50, cell viability 72 h (max 0.001 µM): > 1 nM

Structure (SMILES): CCc1c2c(nc3ccc(O)cc13)-c1cc3c(c(=O)n1C2)COC(=O)[C@]3(O)CC [SN-38]
- IC50, cell viability 72 h (max 0.3 µM): 22 nM

Structure (SMILES): N#Cc1cnc(Nc2cc(NC[C@H]3CNCCO3)c(C(F)(F)F)cn2)cn1 [SRA737]
- IC50, cell viability 72 h (max 10 µM): 2860 nM

Structure (SMILES): C[C@@H](c1ccc2nccn2c1)n1nnc2ncc(-c3cnn(C)c3)nc21 [Savolitinib]
- IC50, cell viability 72 h (max 1 µM): > 1000 nM

Structure (SMILES): Cn1cnc2c(F)c(Nc3ccc(Br)cc3Cl)c(C(=O)NOCCO)cc21 [Selumetinib]
- IC50, cell viability 72 h (max 10 µM): > 10000 nM

Structure (SMILES): Cc1nc(-c2cn3c(n2)-c2ccc(-c4cnn(C(C)(C)C(N)=O)c4)cc2OCC3)n(C(C)C)n1 [Taselisib]
- IC50, cell viability 72 h (max 10 µM): 5680 nM

Structure (SMILES): CC(=O)Nc1cccc(-n2c(=O)n(C3CC3)c(=O)c3c(Nc4ccc(I)cc4F)n(C)c(=O)c(C)c32)c1 [Trametinib]
- IC50, cell viability 72 h (max 1 µM): > 1000 nM

Structure (SMILES): CC1(C)CCC(CN2CCN(c3ccc(C(=O)NS(=O)(=O)c4ccc(NCC5CCOCC5)c([N+](=O)[O-])c4)c(Oc4cnc5[nH]ccc5c4)c3)CC2)=C(c2ccc(Cl)cc2)C1 [Venetoclax]
- IC50, cell viability 72 h (max 1 µM): > 1000 nM
